# Source: patent US20260285849A1, “METHYLOPHIOPOGONONE A DERIVATIVE, AND PREPARATION AND USE THEREOF” (INSTITUTE OF MATERIA MEDICA, CHINESE ACADEMY OF MEDICAL …, priority 2022, published 2026)
# Read-outs that look alike come from different tables or passages of the source. Marks after values point to notes of the source that are not given here.
# Tests used:
# [1] = system: Rat H9C2 cardiomyocytes; conditions: for OD: 800 μM ISO 24 h, MTT 570 nm; for Cell survival rate: rat, h9c2 cells, 24 h
# Procedure: (§3) Rat H9C2 cardiomyocytes in the logarithmic growth phase were seeded into 96-well plates at a density of 7×10^4 cells/mL, with 100 μL per well. […] After 24 hours of culture, the drug groups were treated with 800 μM ISO and the corresponding concentrations of drugs. The ISO model group received 800 μM ISO and an equal volume of DMSO, and the blank control group received an equal volume of DMSO. The cells were then cultured for another 24 hours. After removing the supernatant, 100 μL MTT solution (0.5 mg/mL) was added to each well and incubated in the cell culture incubator for 4 hours. After removing the supernatant, 150 μL DMSO was added to each well, mixed by shaking for 10 minutes, and the absorbance was measured at 570 nm using a microplate reader to calculate cell viability. Cell viability (%)=[(As−Ab)/(Ac−Ab)]×100%. As: Experimental well (medium with cells, MTT, ISO); Ac: Control well (medium with cells, MTT, without ISO); Ab: Blank well (medium without cells, MTT, without ISO).
# [2] = system: mice with isoproterenol (ISO)-induced ischemic heart disease; experiment: ISO-induced ischemic heart disease mouse model: serum ANP and NT-proBNP (ELISA); format: in vivo; conditions: 20 mg/kg intragastric once a day 11 days, ISO 40 mg/kg s.c. 7 times
# Procedure: (§1) Male C57BL/6 mice were allowed to acclimate to the environment and then randomly divided into 9 groups, namely the blank control group, the ISO model group, the ISO+diltiazem 20 mg/kg positive control drug group, the ISO+Formula I (0.1, 0.5, 2 mg/kg) groups, and the ISO+Formula II (0.1, 0.5, 2 mg/kg) groups. Mice in the drug administration groups were intragastrically administered the corresponding doses of Formula I and Formula II compounds once a day at the same time. Mice in the positive drug diltiazem group were intragastrically administered the corresponding dose of diltiazem once a day. Mice in the blank control group and the model group were given the same amount of solvent (0.5% CMC-Na). The administration volume was 10 mL/kg, and the administration was continuous for 11 days.
# (§2) From the 4th to the 10th day of drug administration, ISO modeling was carried out. The blank control group was subcutaneously injected with normal saline, and mice in the other groups were subcutaneously injected with ISO at a dose of 40 mg/kg (modeling was performed 2 hours after drug administration), for a total of 7 times.
# Detection of Myocardial Hypertrophy/Heart Failure Biomarkers: After the drug administration ended, the animals' eyes were enucleated to collect blood. The blood was left to stand at room temperature for 2 hours, and then centrifuged at 3500 rpm for 20 minutes to separate the serum. The contents of serum ANP and NT-proBNP were determined according to the instructions of the ELISA kit.
# [3] = system: H9C2 cardiomyocytes; experiment: Angiotensin II (Ang II)-induced cardiomyocyte hypertrophy model, crystal violet, cell surface area; format: cell-based, rat; conditions: 10 μM; 40 μM Ang II 24 h; mean of 5 views
# Procedure: Adjust the H9C2 cardiomyocytes in the logarithmic growth phase to a density of 1.2×10^5 cells/well and inoculate them into six-well plates. […] After culturing for 24 hours, the drug administration groups are added with 40 μM Ang II and the corresponding concentrations of drugs. The Ang II+diltiazem 10 μM group is added with 40 μM Ang II and 10 μM diltiazem. The Ang II model group is added with 40 μM Ang II and an equal volume of DMSO. The blank control group is added with an equal volume of DMSO. Then, continue culturing for 24 hours. Discard the culture medium, wash the cells 3 times with PBS. Add 1 mL of methanol to each well and fix the cells at −20° C. for 20 minutes, and then let them return to room temperature. After discarding the methanol, add 1 mL of 0.5% crystal violet staining solution to each well and stain for 10 minutes. Wash the cells with clean water and take pictures under an inverted microscope. Randomly select fields of view for photographing. Use Image J software to measure the sum of the surface areas of all cardiomyocytes in the field of view and count the number of cells in the field of view at the same time to obtain the surface area of each cardiomyocyte. The surface area of a single cardiomyocyte=the sum of the surface areas of all cardiomyocytes in the field of view/the number of cardiomyocytes in the field of view.
# [4] = system: mice with isoproterenol (ISO)-induced ischemic heart disease; experiment: ISO-induced ischemic heart disease mouse model: myocardial tissue pathology (H&E); format: in vivo; conditions: 20 mg/kg, H&E
# Procedure: as §1, §2
# Pathological detection of myocardial tissue: After the experiment ended, the heart was washed with ice-cold physiological saline and dried with absorbent paper. It was then cut transversely into two halves. One-third of the part closer to the apex of the heart was fixed in a 4% paraformaldehyde solution. After dehydration with gradient ethanol and clearing with xylene, it was immersed in melted paraffin three times for embedding, 30 minutes each time. After embedding, continuous sections (about 4 μm thick) were made. Routine hematoxylin and eosin (H.E.) staining was performed. The pathological state of the myocardial tissue was observed under an optical microscope, photographed, and analyzed.
# • −: No abnormalities were observed. • +: No myocardial tissue damage was seen. There was local hypertrophy of cardiomyocytes in the interventricular septum and papillary muscles, local edema and degeneration of cardiomyocytes, widening of the local muscle space in the lesion area, and mild non-specific inflammation in the interstitium. • ++: No obvious myocardial tissue damage (cardiomyocyte necrosis) was observed. There was local hypertrophy of cardiomyocytes in the interventricular septum and papillary muscles, local edema and degeneration of cardiomyocytes. Myofibril dissolution (disappearance of cross-striations) could be seen in local areas. The lesions were relatively limited and distributed in small foci. Non-specific inflammation was visible in the interstitium, and local fibrous tissue hyperplasia in the interstitium was noted. • +++: There was obvious hypertrophy of cardiomyocytes in the interventricular septum and papillary muscles, local edema and degeneration of cardiomyocytes. […] The lesion was limited to the subendocardium of the local interventricular septum (or papillary muscle), with a limited and small affected area. Non-specific inflammation was visible in the interstitium of the lesion area, and local fibrous tissue hyperplasia in the interstitium was noted. • ++++: The hypertrophy of cardiomyocytes in the interventricular septum and papillary muscles is remarkable. Locally, there is edema and degeneration of cardiomyocytes; there is obvious damage (necrosis of cardiomyocytes) in the myocardial tissue of the local interventricular septum and papillary muscles. The lesions are distributed in foci (or small patches), and the affected area is relatively large. […] Locally, there is edema and degeneration of cardiomyocytes; the damage (necrosis of cardiomyocytes) of the myocardial tissue of the local interventricular septum and papillary muscles is severe. The damage (necrosis) lesions are distributed in patches and are connected to each other. Transmural myocardial tissue damage of the interventricular septum and papillary muscles can be seen locally.
# [5] = system: Rat H9C2 cardiomyocytes; experiment: cells; conditions: H9c2, 24 h, read-out: Cell survival rate
# Procedure: as §3
# [6] = system: H9C2 cardiomyocytes; conditions: for OD: 6 h hypoxia, 12 h reoxygenation, CCK 450 nm; for Cell viability: rat, h9c2 cells
# Procedure: (§4) H9C2 cardiomyocytes in the logarithmic growth phase were seeded into 96-well plates at a density of 7×10^4 cells/mL, with 100 μL per well.
# (§5) After 24 hours of culture, the culture medium of the H/R and drug-treated groups was replaced with serum-free glucose-free DMEM medium (100 μL per well). The cells were then placed in an anaerobic incubator and cultured under hypoxic conditions in a 37° C. cell culture incubator. After 6 hours, the supernatant of the H/R and drug-treated groups was removed and replaced with high-glucose medium containing 10% fetal bovine serum (100 μL per well). Each drug-treated group received the corresponding concentration of the drug, while the H/R model group and the blank control group received an equal volume of DMSO.
# (§6) After removing the supernatant, 100 μL of CCK solution (the volume of CCK accounted for 10% of the DMEM culture medium volume) was added to each well. The cells were cultured in the cell culture incubator for 1 hour, and the absorbance was measured at 450 nm using a microplate reader to calculate the cell viability. Cell viability was calculated as follows: Cell viability (%)=(Experimental well-Blank well)/(Control well-Blank well)×100%.
# [7] = system: H9C2 cardiomyocytes; experiment: cells; conditions: Rattus norvegicus, H9c2, read-out: Cell viability
# Procedure: as §4, §5, §6
# [8] = system: Rat H9C2 cardiomyocytes; experiment: cells; conditions: H9c2, 24 h, read-out: Cell viability
# Procedure: (§7) Rat H9C2 cardiomyocytes in the logarithmic growth phase were seeded at a density of 7×10^4 cells/mL into 96-well plates, with 100 μL per well. […] After 24 hours of culture, the drug treatment groups were respectively added with 50 μM Ang II and the corresponding concentration of the drug. The Ang II model group was added with 50 μM Ang II and an equal volume of DMSO, and the blank control group was added with an equal volume of DMSO. Then, the cells were cultured for another 24 hours. After removing the supernatant, 100 μL of MTT solution (0.5 mg/mL) was added to each well, and the plates were placed in an incubator for 4 hours. After removing the supernatant again, 150 μL of DMSO was added to each well, and the mixture was shaken and mixed evenly for 10 minutes. The absorbance was measured at 570 nm using a microplate reader to calculate the cell viability.
# (§8) Cell viability (%)=[(As−Ab)/(Ac−Ab)]×100% • As: Experimental well (culture medium containing cells, MTT, Ang II); • Ac: Control well (culture medium containing cells, MTT, without Ang II); • Ab: Blank well (culture medium without cells, MTT, without Ang II).
# [9] = system: mice with isoproterenol (ISO)-induced ischemic heart disease; experiment: ISO-induced ischemic heart disease mouse model: serum CK-MB (ELISA); format: in vivo; conditions: 20 mg/kg intragastric once a day 11 days
# Procedure: as §1, §2
# Myocardial enzyme CK-MB detection: After the administration ended, blood was collected from the animals by enucleation. The blood was left to stand at room temperature for 2 hours, and then centrifuged at 3500 rpm for 20 minutes to separate the serum. The content of CK-MB in the serum was determined according to the instructions of the ELISA kit.
# [10] = system: mice with isoproterenol (ISO)-induced ischemic heart disease; experiment: ISO-induced ischemic heart disease mouse model: Ca2+ in myocardial tissue; format: in vivo; conditions: 20 mg/kg intragastric once a day 11 days
# Procedure: as §1, §2
# Calcium ion detection in myocardial tissue: After the experiment ended, some myocardial tissue was taken to prepare a 10% myocardial tissue homogenate with ultrapure water. The homogenate was centrifuged at 1200 rpm for 20 minutes at 4° C. to separate the supernatant of the myocardial tissue homogenate. The calcium ion content was determined according to the kit instructions; protein quantification was performed using the BCA protein assay method.
# [11] = system: Rat H9C2 cardiomyocytes; conditions: for OD: 10 μM, 50 μM Ang II 24 h, MTT 570 nm
# Procedure: as §7, §8
compound,measurement,setting,value
"COc1ccc([C@@H]2Sc3ccccc3N(CCN(C)C)C(=O)[C@@H]2OC(C)=O)cc1 [Diltiazem, reference compound]",OD,[1]; 10 μM,0.773 ± 0.029
same,ANP,[2],361.59 ± 46.95^ pg/mL
same,NT-proBNP,[2],43.12 ± 2.93 pg/mL
same,Myocardial surface area,[3],392.02 ± 19.37^### μm^2
same,The number of animals with lesion degree +,[4],3
same,The number of animals with lesion degree ++,[4],1
same,The number of animals with lesion degree +++,[4],4
same,The number of animals with lesion degree ++++,[4],0
same,The number of animals with lesion degree +++++,[4],0
same,The number of animals with lesion degree −,[4],2
same,average score of myocardial tissue lesion degree,[4],1.70 ± 1.25
same,viability at 10 µM,[5],63.9%
same,OD,[6]; 10 μM,0.522 ± 0.061
same,viability at 10 µM,[7],50.2%
same,viability at 10 µM,[8],79.7%
same,CK-MB,[9],17.98 ± 2.88 ng/mL
same,Ca^2+,[10],0.057 ± 0.011 mmol/gprot
same,OD,[11],0.857 ± 0.042
Cc1c(O)cc2occ(Cc3ccc4c(c3)OCO4)c(=O)c2c1O [Formula III],OD,[1]; 1 μM,0.815 ± 0.041
same,OD,[1]; 5 μM,0.792 ± 0.061
same,OD,[1]; 10 μM,0.750 ± 0.065
same,viability at 1 µM,[5],67.4%
same,viability at 5 µM,[5],65.5%
same,viability at 10 µM,[5],62.1%
same,OD,[6]; 0.1 μM,0.552 ± 0.067
same,OD,[6]; 0.3 μM,0.500 ± 0.062
same,OD,[6]; 1 μM,0.555 ± 0.053
same,OD,[6]; 3 μM,0.580 ± 0.069
same,OD,[6]; 5 μM,0.543 ± 0.037
same,OD,[6]; 10 μM,0.527 ± 0.047
same,viability at 0.1 µM,[7],53.1%
same,viability at 0.3 µM,[7],48.1%
same,viability at 1 µM,[7],53.4%
same,viability at 3 µM,[7],55.8%
same,viability at 5 µM,[7],52.2%
same,viability at 10 µM,[7],50.6%
"Cc1c(O)c(C)c2occ(Cc3ccc4c(c3)OCO4)c(=O)c2c1O [methyl ophiopogonone A, reference compound]",OD,[1]; 1 μM,0.781 ± 0.029
same,OD,[1]; 5 μM,0.801 ± 0.045
same,OD,[1]; 10 μM,0.724 ± 0.024^(p = 0.09)
same,Cell survival rate,[1]; 1 µM,64.63%
same,Cell survival rate,[1]; 5 µM,66.28%
same,Cell survival rate,[1]; 10 µM,59.89%
same,OD,[6]; 1 μM,0.540 ± 0.034
same,OD,[6]; 5 μM,0.501 ± 0.042
same,OD,[6]; 10 μM,0.581 ± 0.054
same,Cell viability,[6]; 1 µM,51.93%
same,Cell viability,[6]; 5 µM,48.17%
same,Cell viability,[6]; 10 µM,55.82%
same,OD,[11],0.833 ± 0.041
same,Cell viability,"[11]; rat, h9c2 cells, 24 h, 10 µM",77.40%
